{"source": "patent US9365583B2", "about": "“Substituted pyrazoles and uses thereof” (Genentech, Inc., priority 2013, dated 2016)"}
{"biological_target": "T1, N-terminally GST-tagged DLK (catalytic domain amino acid 1-520) (Homo sapiens, UniProt Q12852)", "T1 construct": "N-terminally GST-tagged DLK (catalytic domain amino acid 1-520); purchased Carna Bioscience", "T1 sequence (Q12852 1-520)": "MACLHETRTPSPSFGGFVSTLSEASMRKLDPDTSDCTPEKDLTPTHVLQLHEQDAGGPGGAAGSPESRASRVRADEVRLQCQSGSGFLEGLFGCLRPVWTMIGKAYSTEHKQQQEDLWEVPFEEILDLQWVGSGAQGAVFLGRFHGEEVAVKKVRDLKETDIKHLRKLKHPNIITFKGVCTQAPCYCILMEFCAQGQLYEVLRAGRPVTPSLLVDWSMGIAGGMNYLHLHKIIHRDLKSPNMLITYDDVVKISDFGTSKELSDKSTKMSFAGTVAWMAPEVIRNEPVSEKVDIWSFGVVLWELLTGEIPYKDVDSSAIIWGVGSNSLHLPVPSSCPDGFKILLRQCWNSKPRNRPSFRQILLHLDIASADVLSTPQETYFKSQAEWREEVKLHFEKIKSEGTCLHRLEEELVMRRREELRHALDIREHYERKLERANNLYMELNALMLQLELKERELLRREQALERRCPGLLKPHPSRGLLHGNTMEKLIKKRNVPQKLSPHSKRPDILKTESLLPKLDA", "assay": "DLK TR-FRET inhibition assay", "format": "biochemical", "details": "5 nM GST-DLK, 40 nM HIS-MKK4 K131M substrate, 30 μM ATP, 60 minutes at ambient temperature", "in_short": "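Phosphorylated MKK4 was quantified by TR-FRET (Eu-labelled anti-phospho-MKK4, D2 anti-HIS; 3 h, 665 and 615 nm emission) after EDTA quench. Reactions held 5 nM GST-tagged DLK catalytic domain (1-520), 40 nM HIS-MKK4 K131M substrate, 30 μM ATP and compound (3-fold series from 20 uM), 60 min, room temperature, pH 7.5.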", "units": {"Ki": "nM"}}
{"smiles": "CC(C)n1nc(-c2cnc(N)c(C(F)(F)F)c2)cc1[C@@H]1[C@H]2CC3C(OCCN3C)[C@H]21", "note": "(mixture of isomers) [compound 156, (±)-5-(1-isopropyl-5-(4-methyl-octahydro-2H-cyclopropa[4,5]cyclopenta[1,2-b][1,4]oxazin-6-yl)-1H-pyrazol-3-yl)-3-(trifluoromethyl)pyridin-2-amine]", "Ki": 13.5}
{"smiles": "CC(C)n1nc(-c2cnc(N)c(C(F)(F)F)c2)cc1[C@H]1[C@@H]2C[C@H](N3CCS(=O)(=O)CC3)C[C@@H]21", "note": "[compound 10, 4-((1R,3r,5S,6r)-6-(3-(6-amino-5-(trifluoromethyl)pyridin-3-yl)-1-isopropyl-1H-pyrazol-5-yl)bicyclo[3.1.0]hexan-3-yl)thio-morpholine 1,1-dioxide]", "Ki": 3.28}
{"smiles": "CC(C)n1nc(-c2cnc(N)c(OC(F)F)c2)cc1[C@H]1[C@@H]2C[C@@H](OC3COC3)C[C@@H]21", "note": "[compound 231, 3-(difluoromethoxy)-5-(1-iso-propyl-5-((1R,3s,5S,6r)-3-(oxetan-3-yloxy)bicyclo[3.1.0]hexan-6-yl)-1H-pyrazol-3-yl)pyridin-2-amine]", "Ki": 5.5}
{"smiles": "CC(C)n1nc(-c2cnc3cnn([C@H](C)c4ccccn4)c3c2)cc1[C@H]1[C@@H]2C[C@H](N3CCOCC3)C[C@@H]21", "note": "[compound 33, 4-((1R3R,5S,6r)-6-(1-isopropyl-3-(1-((R)-1-(pyridin-2-yl)ethyl)-1H-pyrazolo[4,3-b]pyridin-6-yl)-1H-pyrazol-5-yl)bicyclo[3.10]hexan-3-yl)morpholine]", "Ki": 123}
{"smiles": "CC(C)n1nc(-c2cnc(N)c(OC(F)F)c2)cc1[C@H]1[C@@H]2C[C@@H](N3CCOCC3)C[C@@H]21", "note": "[compound 137, 3-(difluoromethoxy)-5-(1-isopropyl-5-((1R,3s,5S,6r)-3-morpholino-bicyclo[3.1.0]hexan-6-yl)-1 H-pyrazol-3-yl)pyridin-2-amine]", "Ki": 3.34}
{"smiles": "CO[C@H]1CCN([C@@H]2C[C@@H]3[C@H](C2)[C@H]3c2cc(-c3cnc(N)c(C(F)(F)F)c3)nn2CC(F)F)C1", "note": "[compound 150, 5-(1-(2,2-difluoroethyl)-5-((1R,3s,5S,6S)-3-((S)-3-methoxy-pyrrolidin-1-yl)bicyclo[3.1.0]hexan-6-yl)-1H-pyrazol-3-yl)-3-(trifluoro-methyl)pyridin-2-amine]", "Ki": 3.6}
{"smiles": "CC(C)n1nc(-c2cnc(N)c(OC(F)F)c2)cc1C1[C@H]2CC(N3CCOCC(F)C3)C[C@@H]12", "note": "(single isomer, unassigned) [compound 172]", "Ki": 4.2}
{"smiles": "CC(C)n1nc(-c2cnc(N)c(OC(F)F)c2)cc1[C@H]1[C@@H]2C[C@@]3(CCN3CC(F)F)C[C@@H]21", "note": "[compound 162, 5-(5-((1′R,2r,5′S,6′r)-1-(2,2-difluoro-ethyl)spiro[azetidine-2,3′-bicyclo[3.1.0]hexan]-6′-yl)-1-isopropyl-1H-pyrazol-3-yl)-3-(difluoro-methoxy)pyridin-2-amine]", "Ki": 2.6}
{"smiles": "Nc1ncc(-c2cc([C@H]3[C@@H]4C[C@@H](N5CCOCC5)C[C@@H]43)n(CC3CCC3)n2)cc1OC(F)F", "note": "[compound 128, 5-(1-(cyclobutylmethyl)-5-((1R, 3s,5S,6r)-3-morpholinobicyclo [3.1.0]hexan-6-yl)-1H-pyrazol-3-yl)-3-(difluoromethoxy)pyridin-2-amine]", "Ki": 5.06}
{"smiles": "CC(C)n1nc(-c2cnc(N)c(OC(F)F)c2)cc1[C@H]1[C@@H]2C[C@@H](O)C[C@@H]21", "note": "[compound 6, (1R,3s,5S,6r)-6-(3-(6-amino-5-(difluoromethoxy)pyridin-3-yl)-1-isopropyl-1H-pyrazol-5-yl) bicyclo[3.1.0]hexan-3-ol]", "Ki": 14.4}
{"smiles": "CC(C)n1nc(-c2cnc(N)c(C(F)(F)F)c2)cc1[C@H]1[C@@H]2C[C@@]3(CCN3CC(F)F)C[C@@H]21", "note": "[compound 148, 5-(5-((1′R,2r,5′S,6′r)-1-(2,2-difluoro-ethyl)spiro[azetidine-2,3′-bicyclo[3.1.0]hexan]-6-yl)-1-isopropyl-1H-pyrazol-3-yl)-3-(trifluoro-methyl)pyridin-2-amine]", "Ki": 8.9}
